Experimental data from US20110009350A1, “Oil-in-Water Formulation of Avermectins” (priority 2005, published 2011).

Columns and labels:
[1] = Stability of Abamectin in water exposed to light (5000-6000 lux) at 25° C., HPLC; type: physicochemical
Protocol: The stability of Abamectin in water exposed to light at various pH-values was determined. 194.4 mg of Abamectin was dissolved in 10 ml methanol and 1 ml of the solution transferred to 100 ml of demineralised water and a part of this transferred to a buffer solution. The solution was exposed to light (5000-6000 lux) at 25° C. and analysed using a HPLC.

[2] = Stability of Abamectin in water at various pH-values and temperatures, kept in the dark, HPLC; type: physicochemical
Protocol: The stability of Abamectin in water at various pH-values and temperatures was determined. 194.4 mg of Abamectin was dissolved in 10 ml methanol and 1 ml of the solution transferred to 100 ml of de-mineralised water and a part of this was transferred to a buffer solution. The sample was kept in the dark and the solution analysed using a HPLC.

**Q.** With Abamectin as the substance, how does the “Abamectin concentration (ppm)” value ([1]; 7 days, pH 4.0) read?
**A.** 2.923 ppm

**Q.** And the “Abamectin concentration (ppm)” value ([1]; 7 days, pH 7.0)?
**A.** 2.941 ppm

**Q.** And the “Abamectin concentration (ppm)” value ([1]; 7 days, pH 9.0)?
**A.** 3.163 ppm

**Q.** And the “Abamectin concentration (ppm)” value ([1]; 14 days, pH 4.0)?
**A.** 2.332 ppm

**Q.** What about the “Abamectin concentration (ppm)” value ([1]; 14 days, pH 7.0) of the same substance?
**A.** 2.529 ppm

**Q.** And the “Abamectin concentration (ppm)” value ([1]; 14 days, pH 9.0)?
**A.** 2.810 ppm

**Q.** And the “Abamectin concentration (ppm)” value ([1]; 21 days, pH 4.0)?
**A.** 1.961 ppm

**Q.** And the “Abamectin concentration (ppm)” value ([1]; 21 days, pH 7.0)?
**A.** 2.223 ppm

**Q.** What about the “Abamectin concentration (ppm)” value ([1]; 21 days, pH 9.0) of the same substance?
**A.** 2.360 ppm

**Q.** And the “Abamectin concentration (ppm)” value ([1]; 28 days, pH 4.0)?
**A.** 1.666 ppm

**Q.** What about the “Abamectin concentration (ppm)” value ([1]; 28 days, pH 7.0) of the same substance?
**A.** 2.034 ppm

**Q.** What about the “Abamectin concentration (ppm)” value ([1]; 28 days, pH 9.0) of the same substance?
**A.** 2.173 ppm

**Q.** What about the “Abamectin concentration (ppm)” value ([1]; Initial, pH 4.0) of the same substance?
**A.** 3.495 ppm

**Q.** What about the “Abamectin concentration (ppm)” value ([1]; Initial, pH 7.0) of the same substance?
**A.** 3.327 ppm

**Q.** And the “Abamectin concentration (ppm)” value ([1]; Initial, pH 9.0)?
**A.** 3.555 ppm

**Q.** And the “Abamectin concentration (ppm)” value ([2]; 25° C., 7 days, pH 4.0, dark)?
**A.** 3.130 ppm

**Q.** What about the “Abamectin concentration (ppm)” value ([2]; 25° C., 7 days, pH 7.0, dark) of the same substance?
**A.** 3.188 ppm

**Q.** What about the “Abamectin concentration (ppm)” value ([2]; 25° C., 7 days, pH 9.0, dark) of the same substance?
**A.** 3.005 ppm

**Q.** And the “Abamectin concentration (ppm)” value ([2]; 25° C., 14 days, pH 4.0, dark)?
**A.** 2.782 ppm

**Q.** What about the “Abamectin concentration (ppm)” value ([2]; 25° C., 14 days, pH 7.0, dark) of the same substance?
**A.** 3.040 ppm

**Q.** And the “Abamectin concentration (ppm)” value ([2]; 25° C., 14 days, pH 9.0, dark)?
**A.** 2.596 ppm

**Q.** And the “Abamectin concentration (ppm)” value ([2]; 25° C., 21 days, pH 4.0, dark)?
**A.** 2.566 ppm

**Q.** What about the “Abamectin concentration (ppm)” value ([2]; 25° C., 21 days, pH 7.0, dark) of the same substance?
**A.** 2.829 ppm

**Q.** What about the “Abamectin concentration (ppm)” value ([2]; 25° C., 21 days, pH 9.0, dark) of the same substance?
**A.** 2.380 ppm

**Q.** What about the “Abamectin concentration (ppm)” value ([2]; 25° C., 28 days, pH 4.0, dark) of the same substance?
**A.** 2.524 ppm

**Q.** And the “Abamectin concentration (ppm)” value ([2]; 25° C., 28 days, pH 7.0, dark)?
**A.** 2.676 ppm

**Q.** And the “Abamectin concentration (ppm)” value ([2]; 25° C., 28 days, pH 9.0, dark)?
**A.** 2.287 ppm

**Q.** What about the “Abamectin concentration (ppm)” value ([2]; 25° C., Initial, pH 4.0, dark) of the same substance?
**A.** 3.495 ppm

**Q.** What about the “Abamectin concentration (ppm)” value ([2]; 25° C., Initial, pH 7.0, dark) of the same substance?
**A.** 3.327 ppm

**Q.** What about the “Abamectin concentration (ppm)” value ([2]; 25° C., Initial, pH 9.0, dark) of the same substance?
**A.** 3.555 ppm

**Q.** What about the “Abamectin concentration (ppm)” value ([2]; 50° C., 7 days, pH 4.0, dark) of the same substance?
**A.** 1.054 ppm

**Q.** And the “Abamectin concentration (ppm)” value ([2]; 50° C., 7 days, pH 7.0, dark)?
**A.** 2.952 ppm

**Q.** What about the “Abamectin concentration (ppm)” value ([2]; 50° C., 7 days, pH 9.0, dark) of the same substance?
**A.** 1.265 ppm

**Q.** And the “Abamectin concentration (ppm)” value ([2]; 50° C., 14 days, pH 4.0, dark)?
**A.** 0.383 ppm

**Q.** And the “Abamectin concentration (ppm)” value ([2]; 50° C., 14 days, pH 7.0, dark)?
**A.** 2.780 ppm

**Q.** And the “Abamectin concentration (ppm)” value ([2]; 50° C., 14 days, pH 9.0, dark)?
**A.** 0.519 ppm

**Q.** What about the “Abamectin concentration (ppm)” value ([2]; 50° C., 21 days, pH 4.0, dark) of the same substance?
**A.** 0.123 ppm

**Q.** And the “Abamectin concentration (ppm)” value ([2]; 50° C., 21 days, pH 7.0, dark)?
**A.** 2.194 ppm

**Q.** And the “Abamectin concentration (ppm)” value ([2]; 50° C., 21 days, pH 9.0, dark)?
**A.** 0.205 ppm

**Q.** What about the “Abamectin concentration (ppm)” value ([2]; 50° C., 28 days, pH 4.0, dark) of the same substance?
**A.** 0.0609 ppm

**Q.** What about the “Abamectin concentration (ppm)” value ([2]; 50° C., 28 days, pH 7.0, dark) of the same substance?
**A.** 1.949 ppm

**Q.** And the “Abamectin concentration (ppm)” value ([2]; 50° C., 28 days, pH 9.0, dark)?
**A.** 0.0628 ppm

**Q.** What about the “Abamectin concentration (ppm)” value ([2]; 50° C., Initial, pH 4.0, dark) of the same substance?
**A.** 3.495 ppm

**Q.** What about the “Abamectin concentration (ppm)” value ([2]; 50° C., Initial, pH 7.0, dark) of the same substance?
**A.** 3.327 ppm

**Q.** And the “Abamectin concentration (ppm)” value ([2]; 50° C., Initial, pH 9.0, dark)?
**A.** 3.555 ppm
